Measured values from PubChem BioAssay AID1963854 (Molecular Pharmacology Branch, DTP, NCI, 2024).

System: 186277-243-T-J2-PDC complex spheroid viability
Experiment: Anticancer human tumor 186277-243-T-J2-PDC patient-derived colon adenocarcinoma cell line growth inhibition [POLQ]
Settings: for IC50: curve of first compound; for viability, T/C: stronger effect = lower value
Summary of the method: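 Growth inhibition in 3D: complex spheroids (tumor PDC, HUVEC, MSC) treated with POLQ inhibitor combinations; where Cmax unknown, highest tested concentration 10 microM, except SN-38 at 1 microM.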

[1] = second compound 0.0316 µM, first compound 0.0316 µM
[2] = second compound 0.0316 µM, first compound 0.1 µM
[3] = second compound 0.0316 µM, first compound 0.316 µM
[4] = second compound 0.0316 µM, first compound 1 µM
[5] = second compound 0.1 µM, first compound 0.0316 µM
[6] = second compound 0.1 µM, first compound 0.1 µM
[7] = second compound 0.1 µM, first compound 0.316 µM
[8] = second compound 0.1 µM, first compound 1 µM
[9] = second compound 0.316 µM, first compound 0.0316 µM
[10] = second compound 0.316 µM, first compound 0.1 µM
[11] = second compound 0.316 µM, first compound 0.316 µM
[12] = second compound 0.316 µM, first compound 1 µM
[13] = second compound 1 µM, first compound 0.0316 µM
[14] = second compound 1 µM, first compound 0.1 µM
[15] = second compound 1 µM, first compound 0.316 µM
[16] = second compound 1 µM, first compound 1 µM
[17] = second compound 3.16 µM, first compound 0.0316 µM
[18] = second compound 3.16 µM, first compound 0.1 µM
[19] = second compound 3.16 µM, first compound 0.316 µM
[20] = second compound 3.16 µM, first compound 1 µM
[21] = second compound 10 µM, first compound 0.0316 µM
[22] = second compound 10 µM, first compound 0.1 µM
[23] = second compound 10 µM, first compound 0.316 µM
[24] = second compound 10 µM, first compound 1 µM
[25] = second compound 0.0316 µM, first compound 3.16 µM
[26] = second compound 0.0316 µM, first compound 10 µM
[27] = second compound 0.1 µM, first compound 3.16 µM
[28] = second compound 0.1 µM, first compound 10 µM
[29] = second compound 0.316 µM, first compound 3.16 µM
[30] = second compound 0.316 µM, first compound 10 µM
[31] = second compound 1 µM, first compound 3.16 µM
[32] = second compound 1 µM, first compound 10 µM
[33] = second compound 3.16 µM, first compound 3.16 µM
[34] = second compound 3.16 µM, first compound 10 µM
[35] = second compound 10 µM, first compound 3.16 µM
[36] = second compound 10 µM, first compound 10 µM
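Also: spheroids exposed to compounds for seven days.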
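For viability, T/C in this document: 100% = DMSO vehicle control viability.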

For COc1cccc(OCCCN)c1-c1cc(Nc2cnc(C#N)cn2)n[nH]1 + Cc1cccc(N(C)C(=O)C2C(O)CCN2c2nc(C)cc(C(F)(F)F)c2C#N)c1, the IC50 (second compound 0.0316 µM) was < 0.00316 µM, the IC50 (second compound 0.1 µM) was < 0.00316 µM and the IC50 (second compound 0.316 µM) was < 0.00316 µM. The IC50 (second compound 1 µM) was < 0.00316 µM, the IC50 (second compound 3.16 µM) was < 0.00316 µM and the IC50 (second compound 10 µM) was < 0.00316 µM. It also gave a viability, T/C (second compound 0.0316 µM, first compound 0.00316 µM) of 38.4%, a viability, T/C (second compound 0.0316 µM, first compound 0.01 µM) of 14.9% and a viability, T/C [1] of 11.1%. For the same compound, the viability, T/C [2] was 10%, the viability, T/C [3] was 9.49% and the viability, T/C [4] was 10.2%. The viability, T/C (second compound 0.1 µM, first compound 0.00316 µM) was 33.4%, the viability, T/C (second compound 0.1 µM, first compound 0.01 µM) was 15.7% and the viability, T/C [5] was 10.9%. It also gave a viability, T/C [6] of 9.64%, a viability, T/C [7] of 10.2% and a viability, T/C [8] of 9.26%. For the same compound, the viability, T/C (second compound 0.316 µM, first compound 0.00316 µM) was 30.1%, the viability, T/C (second compound 0.316 µM, first compound 0.01 µM) was 12% and the viability, T/C [9] was 10.7%. The viability, T/C [10] was 10.1%, the viability, T/C [11] was 9.4% and the viability, T/C [12] was 8.53%. The viability, T/C (second compound 1 µM, first compound 0.00316 µM) was 30.9%, the viability, T/C (second compound 1 µM, first compound 0.01 µM) was 11.5% and the viability, T/C [13] was 9.4%. It also gave a viability, T/C [14] of 9.54%, a viability, T/C [15] of 9.34% and a viability, T/C [16] of 9.69%. For the same compound, the viability, T/C (second compound 3.16 µM, first compound 0.00316 µM) was 34.2%, the viability, T/C (second compound 3.16 µM, first compound 0.01 µM) was 11.5% and the viability, T/C [17] was 9.08%. It also gave a viability, T/C [18] of 9.36%, a viability, T/C [19] of 9.81% and a viability, T/C [20] of 9.01%. For the same compound, the viability, T/C (second compound 10 µM, first compound 0.00316 µM) was 17.9%, the viability, T/C (second compound 10 µM, first compound 0.01 µM) was 9.92% and the viability, T/C [21] was 8.74%. The viability, T/C [22] was 8.3%, the viability, T/C [23] was 9.78% and the viability, T/C [24] was 9.02%.
For COc1cc2cc(C(=O)CCC(=O)O)sc2cc1OC + Nc1ccc(C#CCN(C(=O)Cc2ncc(C(F)(F)F)cc2C(F)(F)F)c2ccc(F)cc2)nn1, the IC50 (second compound 0.0316 µM) was > 10 µM, the IC50 (second compound 0.1 µM) was > 10 µM and the IC50 (second compound 0.316 µM) was > 10 µM. For the same compound, the IC50 (second compound 1 µM) was > 10 µM, the IC50 (second compound 3.16 µM) was > 10 µM and the IC50 (second compound 10 µM) was > 10 µM. For the same compound, the viability, T/C [1] was 83.5%, the viability, T/C [2] was 87.3% and the viability, T/C [3] was 92.9%. It also gave a viability, T/C [4] of 88.7%, a viability, T/C [25] of 93.4% and a viability, T/C [26] of 85.6%. For the same compound, the viability, T/C [5] was 96.3%, the viability, T/C [6] was 98.5% and the viability, T/C [7] was 91%. It also gave a viability, T/C [8] of 100%, a viability, T/C [27] of 90.3% and a viability, T/C [28] of 103%. It also gave a viability, T/C [9] of 97.5%, a viability, T/C [10] of 87.5% and a viability, T/C [11] of 87%. The viability, T/C [12] was 91.9%, the viability, T/C [29] was 89.9% and the viability, T/C [30] was 97.8%. The viability, T/C [13] was 96.1%, the viability, T/C [14] was 96.5% and the viability, T/C [15] was 92.2%. For the same compound, the viability, T/C [16] was 94.3%, the viability, T/C [31] was 94.8% and the viability, T/C [32] was 83.2%. It also gave a viability, T/C [17] of 78.8%, a viability, T/C [18] of 105% and a viability, T/C [19] of 90%. For the same compound, the viability, T/C [20] was 90.7%, the viability, T/C [33] was 98.9% and the viability, T/C [34] was 93.5%. It also gave a viability, T/C [21] of 106%, a viability, T/C [22] of 94.8% and a viability, T/C [23] of 81.5%. For the same compound, the viability, T/C [24] was 90%, the viability, T/C [35] was 90.5% and the viability, T/C [36] was 96.5%.
For CCc1cc2c(N3CCc4c(cc(Cn5ccnc5)cc4-c4cn(C)nc4C(F)(F)F)C3=O)cc(C)nc2c(OC)n1 + Cc1cccc(N(C)C(=O)C2C(O)CCN2c2nc(C)cc(C(F)(F)F)c2C#N)c1, the IC50 (second compound 0.0316 µM) was > 10 µM, the IC50 (second compound 0.1 µM) was > 10 µM and the IC50 (second compound 0.316 µM) was > 10 µM. For the same compound, the IC50 (second compound 1 µM) was > 10 µM, the IC50 (second compound 3.16 µM) was > 10 µM and the IC50 (second compound 10 µM) was > 10 µM. For the same compound, the viability, T/C [1] was 111%, the viability, T/C [2] was 86.9% and the viability, T/C [3] was 98.8%. The viability, T/C [4] was 97.1%, the viability, T/C [25] was 93.9% and the viability, T/C [26] was 95.2%. The viability, T/C [5] was 90.8%, the viability, T/C [6] was 91.3% and the viability, T/C [7] was 96.8%. It also gave a viability, T/C [8] of 99.4%, a viability, T/C [27] of 112% and a viability, T/C [28] of 83.2%. The viability, T/C [9] was 97%, the viability, T/C [10] was 101% and the viability, T/C [11] was 101%. The viability, T/C [12] was 114%, the viability, T/C [29] was 116% and the viability, T/C [30] was 92.5%. For the same compound, the viability, T/C [13] was 99.4%, the viability, T/C [14] was 96.9% and the viability, T/C [15] was 107%. For the same compound, the viability, T/C [16] was 111%, the viability, T/C [31] was 115% and the viability, T/C [32] was 83.4%. It also gave a viability, T/C [17] of 108%, a viability, T/C [18] of 104% and a viability, T/C [19] of 88.6%. It also gave a viability, T/C [20] of 113%, a viability, T/C [33] of 94.1% and a viability, T/C [34] of 92.9%. For the same compound, the viability, T/C [21] was 101%, the viability, T/C [22] was 110% and the viability, T/C [23] was 107%. For the same compound, the viability, T/C [24] was 103%, the viability, T/C [35] was 104% and the viability, T/C [36] was 97.9%.
